Measured values reported in publication PMC11864979, “First-in-class ultralong-target-residence-time p38α inhibitors as a mitosis-targeted therapy for colorectal cancer” (Nature Cancer, 2025).
Read-outs that look alike come from different tables or passages of the source.

Key:
Test in all cases: selectivity profiling in a panel of 340 wild-type kinases (Reaction Biology Europe)
Assay type in all cases: binding
340 wild-type kinases [1] = target: T1, 340 wild-type kinases (Homo sapiens, UniProt Q96RR4)
T1 construct: purchased Reaction Biology Europe
T1 sequence (Q96RR4 whole entry): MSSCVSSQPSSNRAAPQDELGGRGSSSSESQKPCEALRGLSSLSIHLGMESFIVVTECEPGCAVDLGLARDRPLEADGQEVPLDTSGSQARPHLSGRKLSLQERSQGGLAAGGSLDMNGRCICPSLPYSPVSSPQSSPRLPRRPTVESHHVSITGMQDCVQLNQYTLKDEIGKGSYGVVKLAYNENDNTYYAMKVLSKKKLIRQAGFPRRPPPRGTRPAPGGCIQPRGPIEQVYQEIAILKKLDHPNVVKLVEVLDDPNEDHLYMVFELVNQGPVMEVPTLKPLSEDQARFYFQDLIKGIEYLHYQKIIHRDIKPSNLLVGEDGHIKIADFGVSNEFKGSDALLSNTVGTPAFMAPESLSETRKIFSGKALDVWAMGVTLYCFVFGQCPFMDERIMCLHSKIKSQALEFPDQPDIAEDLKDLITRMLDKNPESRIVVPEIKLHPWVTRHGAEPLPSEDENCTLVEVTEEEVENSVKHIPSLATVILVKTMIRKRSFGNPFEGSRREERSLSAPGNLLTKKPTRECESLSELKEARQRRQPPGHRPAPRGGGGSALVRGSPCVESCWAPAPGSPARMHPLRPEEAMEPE

340 wild-type kinases [2] = target: T2, 340 wild-type kinases (Homo sapiens, UniProt Q13163)
T2 construct: purchased Reaction Biology Europe
T2 sequence (Q13163 1-448): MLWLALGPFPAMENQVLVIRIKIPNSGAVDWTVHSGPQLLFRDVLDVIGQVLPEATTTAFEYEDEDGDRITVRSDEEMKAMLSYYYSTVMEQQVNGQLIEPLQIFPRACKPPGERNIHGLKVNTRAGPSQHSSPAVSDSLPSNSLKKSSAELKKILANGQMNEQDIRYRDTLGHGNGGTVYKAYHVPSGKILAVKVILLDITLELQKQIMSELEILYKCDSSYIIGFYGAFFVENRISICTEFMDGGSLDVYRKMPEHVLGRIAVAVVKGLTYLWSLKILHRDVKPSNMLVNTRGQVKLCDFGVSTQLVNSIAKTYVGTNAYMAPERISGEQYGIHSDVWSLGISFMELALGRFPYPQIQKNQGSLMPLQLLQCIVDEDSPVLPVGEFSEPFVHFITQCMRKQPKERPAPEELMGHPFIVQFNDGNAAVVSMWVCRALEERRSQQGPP

340 wild-type kinases [3] = target: T3, 340 wild-type kinases (Homo sapiens, UniProt P50613)
T3 construct: purchased Reaction Biology Europe
T3 sequence (P50613 whole entry): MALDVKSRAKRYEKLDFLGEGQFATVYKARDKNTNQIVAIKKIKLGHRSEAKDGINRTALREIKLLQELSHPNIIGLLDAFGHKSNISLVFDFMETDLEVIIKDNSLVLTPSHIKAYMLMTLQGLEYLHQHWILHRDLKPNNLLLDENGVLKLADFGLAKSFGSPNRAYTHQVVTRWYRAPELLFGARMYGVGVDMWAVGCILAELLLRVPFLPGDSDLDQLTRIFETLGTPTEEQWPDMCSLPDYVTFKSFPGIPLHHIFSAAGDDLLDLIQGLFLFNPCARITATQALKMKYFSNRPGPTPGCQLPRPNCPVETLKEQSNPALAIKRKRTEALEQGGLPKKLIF

340 wild-type kinases [4] = target: T4, 340 wild-type kinases (Homo sapiens, UniProt Q14164)
T4 construct: purchased Reaction Biology Europe
T4 sequence (Q14164 1-716): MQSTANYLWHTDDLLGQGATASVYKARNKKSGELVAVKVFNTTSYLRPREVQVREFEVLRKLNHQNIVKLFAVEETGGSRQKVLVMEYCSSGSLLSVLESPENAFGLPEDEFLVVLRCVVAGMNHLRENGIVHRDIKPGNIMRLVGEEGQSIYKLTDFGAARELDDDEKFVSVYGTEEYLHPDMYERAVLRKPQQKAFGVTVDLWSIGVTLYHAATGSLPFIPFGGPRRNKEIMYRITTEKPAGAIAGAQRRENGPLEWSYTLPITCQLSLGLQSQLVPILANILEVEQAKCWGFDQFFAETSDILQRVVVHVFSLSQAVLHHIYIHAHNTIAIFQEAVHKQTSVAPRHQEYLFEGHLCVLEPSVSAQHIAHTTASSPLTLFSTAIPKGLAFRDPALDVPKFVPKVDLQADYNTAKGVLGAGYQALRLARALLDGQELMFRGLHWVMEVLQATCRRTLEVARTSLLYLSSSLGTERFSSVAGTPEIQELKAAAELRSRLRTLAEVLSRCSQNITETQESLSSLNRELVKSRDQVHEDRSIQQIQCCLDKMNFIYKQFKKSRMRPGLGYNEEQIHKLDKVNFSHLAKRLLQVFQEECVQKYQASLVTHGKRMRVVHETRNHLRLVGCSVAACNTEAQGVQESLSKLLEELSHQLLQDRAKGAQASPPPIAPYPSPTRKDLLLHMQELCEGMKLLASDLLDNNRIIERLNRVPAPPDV

340 wild-type kinases [5] = target: T5, 340 wild-type kinases (Homo sapiens, UniProt Q16816)
T5 construct: purchased Reaction Biology Europe
T5 sequence (Q16816 whole entry): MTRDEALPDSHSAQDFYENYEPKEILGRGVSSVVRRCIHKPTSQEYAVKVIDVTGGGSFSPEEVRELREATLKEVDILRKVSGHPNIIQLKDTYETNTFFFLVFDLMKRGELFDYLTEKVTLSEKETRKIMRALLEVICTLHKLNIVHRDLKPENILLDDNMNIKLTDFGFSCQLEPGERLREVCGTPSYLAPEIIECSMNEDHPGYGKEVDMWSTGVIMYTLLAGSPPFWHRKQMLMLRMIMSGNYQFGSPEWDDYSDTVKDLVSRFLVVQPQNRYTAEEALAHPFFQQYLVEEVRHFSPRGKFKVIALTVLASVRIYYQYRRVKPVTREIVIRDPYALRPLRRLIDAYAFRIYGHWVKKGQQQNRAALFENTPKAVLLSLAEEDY

340 wild-type kinases [6] = target: T6, 340 wild-type kinases (Homo sapiens, UniProt Q08881)
T6 construct: purchased Reaction Biology Europe
T6 sequence (Q08881 1-620): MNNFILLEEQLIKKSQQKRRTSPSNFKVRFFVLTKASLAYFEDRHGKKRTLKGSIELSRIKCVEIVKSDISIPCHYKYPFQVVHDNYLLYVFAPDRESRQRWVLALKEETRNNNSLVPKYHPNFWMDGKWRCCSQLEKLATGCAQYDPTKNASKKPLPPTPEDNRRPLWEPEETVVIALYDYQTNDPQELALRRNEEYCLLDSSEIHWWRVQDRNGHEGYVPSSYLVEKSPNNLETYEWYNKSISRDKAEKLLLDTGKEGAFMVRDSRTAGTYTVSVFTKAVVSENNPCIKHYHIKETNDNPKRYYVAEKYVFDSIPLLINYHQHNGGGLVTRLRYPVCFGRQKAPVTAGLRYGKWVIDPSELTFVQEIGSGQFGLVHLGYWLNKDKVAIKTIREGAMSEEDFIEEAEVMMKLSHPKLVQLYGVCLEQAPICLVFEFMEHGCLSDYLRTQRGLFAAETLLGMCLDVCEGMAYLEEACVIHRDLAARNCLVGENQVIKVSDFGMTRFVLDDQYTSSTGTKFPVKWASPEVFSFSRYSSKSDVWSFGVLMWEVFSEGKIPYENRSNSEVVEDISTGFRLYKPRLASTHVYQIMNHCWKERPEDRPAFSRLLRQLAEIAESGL

340 wild-type kinases [7] = target: T7, 340 wild-type kinases (Homo sapiens, UniProt Q15759)
T7 construct: purchased Reaction Biology Europe
T7 sequence (Q15759 whole entry): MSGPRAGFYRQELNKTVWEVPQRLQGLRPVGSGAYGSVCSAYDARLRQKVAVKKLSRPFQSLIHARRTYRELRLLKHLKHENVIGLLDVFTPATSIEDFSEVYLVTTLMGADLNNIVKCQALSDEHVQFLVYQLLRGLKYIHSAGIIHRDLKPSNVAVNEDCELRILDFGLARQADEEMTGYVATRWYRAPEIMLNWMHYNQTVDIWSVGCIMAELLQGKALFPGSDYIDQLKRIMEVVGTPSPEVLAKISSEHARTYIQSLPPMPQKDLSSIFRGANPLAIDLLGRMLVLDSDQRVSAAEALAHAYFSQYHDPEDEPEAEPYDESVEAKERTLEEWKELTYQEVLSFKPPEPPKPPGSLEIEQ

340 wild-type kinases [8] = target: T8, 340 wild-type kinases (Homo sapiens, UniProt O95819)
T8 construct: purchased Reaction Biology Europe
T8 sequence (O95819 whole entry): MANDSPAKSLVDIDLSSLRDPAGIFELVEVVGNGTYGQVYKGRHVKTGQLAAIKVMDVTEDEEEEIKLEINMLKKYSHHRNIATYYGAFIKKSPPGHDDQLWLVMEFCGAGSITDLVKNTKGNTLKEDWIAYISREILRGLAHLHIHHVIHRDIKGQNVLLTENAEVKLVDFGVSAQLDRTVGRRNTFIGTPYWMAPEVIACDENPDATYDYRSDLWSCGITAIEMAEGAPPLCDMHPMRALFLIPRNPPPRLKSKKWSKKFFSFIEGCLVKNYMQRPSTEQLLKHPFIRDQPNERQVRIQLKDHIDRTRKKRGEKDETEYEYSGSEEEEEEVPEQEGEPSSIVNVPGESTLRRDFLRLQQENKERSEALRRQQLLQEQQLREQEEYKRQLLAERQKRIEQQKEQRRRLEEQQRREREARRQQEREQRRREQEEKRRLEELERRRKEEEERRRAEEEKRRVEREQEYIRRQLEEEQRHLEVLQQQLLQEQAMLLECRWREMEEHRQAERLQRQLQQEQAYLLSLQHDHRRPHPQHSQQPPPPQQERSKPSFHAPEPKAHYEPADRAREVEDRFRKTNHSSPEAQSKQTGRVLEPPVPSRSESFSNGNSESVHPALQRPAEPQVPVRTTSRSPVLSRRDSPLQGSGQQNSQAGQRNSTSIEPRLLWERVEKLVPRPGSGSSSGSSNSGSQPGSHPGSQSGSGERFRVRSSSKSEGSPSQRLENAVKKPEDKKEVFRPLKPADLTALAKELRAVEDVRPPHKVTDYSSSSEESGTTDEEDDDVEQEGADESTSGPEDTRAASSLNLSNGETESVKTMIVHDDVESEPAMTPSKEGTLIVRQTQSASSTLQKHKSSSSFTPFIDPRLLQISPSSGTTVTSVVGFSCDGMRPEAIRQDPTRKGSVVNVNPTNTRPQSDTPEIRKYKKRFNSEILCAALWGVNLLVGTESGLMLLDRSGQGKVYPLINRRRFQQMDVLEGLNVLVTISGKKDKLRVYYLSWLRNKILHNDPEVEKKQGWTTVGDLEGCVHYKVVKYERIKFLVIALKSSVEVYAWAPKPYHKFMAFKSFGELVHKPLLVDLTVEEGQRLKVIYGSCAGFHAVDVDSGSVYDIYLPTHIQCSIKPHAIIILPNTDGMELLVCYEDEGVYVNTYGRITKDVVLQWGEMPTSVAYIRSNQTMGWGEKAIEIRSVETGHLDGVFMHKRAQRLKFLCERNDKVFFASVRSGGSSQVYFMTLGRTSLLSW

## CNC(=O)c1ccc2c(c1)C(=O)c1ccc(Nc3ccc(F)c(NC(=O)C4CC4)c3)cc1CC2 [Compound 2015]
340 wild-type kinases [1]; 0.2 µM 2015, read-out: CAMKK2 residual activity
  remaining activity at 0.2 µM: 96%
340 wild-type kinases [1]; 1 µM 2015, read-out: CAMKK2 residual activity
  remaining activity at 1 µM: 96.6%
340 wild-type kinases [1]; CAMKK2, 0.2 µM, read-out: residual activity
  remaining activity at 0.2 µM: 96%
340 wild-type kinases [1]; CAMKK2, 1 µM, read-out: residual activity
  remaining activity at 1 µM: 96.6%
340 wild-type kinases [2]; 0.2 µM 2015, read-out: MEK5 residual activity
  remaining activity at 0.2 µM: 102%
340 wild-type kinases [2]; 1 µM 2015, read-out: MEK5 residual activity
  remaining activity at 1 µM: 88.1%
340 wild-type kinases [2]; MEK5, 0.2 µM, read-out: residual activity
  remaining activity at 0.2 µM: 102%
340 wild-type kinases [2]; MEK5, 1 µM, read-out: residual activity
  remaining activity at 1 µM: 88.1%
340 wild-type kinases [3]; 0.2 µM 2015, read-out: CDK7/CycH/MAT1 residual activity
  remaining activity at 0.2 µM: 94%
340 wild-type kinases [3]; 1 µM 2015, read-out: CDK7/CycH/MAT1 residual activity
  remaining activity at 1 µM: 91.1%
340 wild-type kinases [3]; CDK7/CycH/MAT1, 0.2 µM, read-out: residual activity
  remaining activity at 0.2 µM: 94%
340 wild-type kinases [3]; CDK7/CycH/MAT1, 1 µM, read-out: residual activity
  remaining activity at 1 µM: 91.2%
340 wild-type kinases [4]; 0.2 µM 2015, read-out: IKKepsilon residual activity
  remaining activity at 0.2 µM: 103%
340 wild-type kinases [4]; 1 µM 2015, read-out: IKKepsilon residual activity
  remaining activity at 1 µM: 92.6%
340 wild-type kinases [4]; IKKepsilon, 0.2 µM, read-out: residual activity
  remaining activity at 0.2 µM: 103%
340 wild-type kinases [4]; IKKepsilon, 1 µM, read-out: residual activity
  remaining activity at 1 µM: 92.6%
340 wild-type kinases [5]; 0.2 µM 2015, read-out: PHKG1 residual activity
  remaining activity at 0.2 µM: 90.9%
340 wild-type kinases [5]; 1 µM 2015, read-out: PHKG1 residual activity
  remaining activity at 1 µM: 102%
340 wild-type kinases [5]; PHKG1, 0.2 µM, read-out: residual activity
  remaining activity at 0.2 µM: 90.9%
340 wild-type kinases [5]; PHKG1, 1 µM, read-out: residual activity
  remaining activity at 1 µM: 102%
340 wild-type kinases [6]; 0.2 µM 2015, read-out: ITK residual activity
  remaining activity at 0.2 µM: 89.4%
340 wild-type kinases [6]; 1 µM 2015, read-out: ITK residual activity
  remaining activity at 1 µM: 87%
340 wild-type kinases [6]; ITK, 0.2 µM, read-out: residual activity
  remaining activity at 0.2 µM: 89.4%
340 wild-type kinases [6]; ITK, 1 µM, read-out: residual activity
  remaining activity at 1 µM: 87%
340 wild-type kinases [7]; 0.2 µM 2015, read-out: p38beta residual activity
  remaining activity at 0.2 µM: 1.85%
340 wild-type kinases [7]; 1 µM 2015, read-out: p38beta residual activity
  remaining activity at 1 µM: 1.94%
340 wild-type kinases [7]; p38beta, 0.2 µM, read-out: residual activity
  remaining activity at 0.2 µM: 1.85%
340 wild-type kinases [7]; p38beta, 1 µM, read-out: residual activity
  remaining activity at 1 µM: 1.94%
340 wild-type kinases [8]; 0.2 µM 2015, read-out: MAP4K4 residual activity
  remaining activity at 0.2 µM: 90.2%
340 wild-type kinases [8]; 1 µM 2015, read-out: MAP4K4 residual activity
  remaining activity at 1 µM: 81.8%
340 wild-type kinases [8]; MAP4K4, 0.2 µM, read-out: residual activity
  remaining activity at 0.2 µM: 90.2%
340 wild-type kinases [8]; MAP4K4, 1 µM, read-out: residual activity
  remaining activity at 1 µM: 81.8%
